Test results as given in the NIST ThermoML archive (doi:10.1016/j.jct.2015.06.005).

Experiments:
[1] = refractive index (Na D-line) (dimensionless); xn = mol fraction of the nth substance listed; conditions: 100 kPa, Liquid, Standard Abbe refractometry
[2] = xn = mol fraction of the nth substance listed; conditions: 100 kPa, Liquid; for speed of sound: Frequency=3 MHz, Sing-around technique in a fixed-path interferometer; for mass density: Vibrating tube method

CCCCCCCCN1CCCC1=O [N-octyl-2-pyrrolidone] + CCCCn1cc[n+](C)c1.F[B-](F)(F)F
Conditions | mass density, [2] [kg/m3] | refractive index, [1] | speed of sound, [2] [m/s]
298.15 K, x2 = 0 | 918.45 | 1.46346 | 1450.2
298.15 K, x2 = 0.1084 | 945.54 | 1.46095 | 1454.9
298.15 K, x2 = 0.196 | 965.52 | 1.45803 | 1457.4
298.15 K, x2 = 0.3023 | 991.51 | 1.45399 | 1461.3
298.15 K, x2 = 0.4087 | 1020.1 | 1.44986 | 1467.5
298.15 K, x2 = 0.5064 | 1045.47 | 1.44556 | 1474
298.15 K, x2 = 0.6027 | 1074.31 | 1.44155 | 1485.8
298.15 K, x2 = 0.6981 | 1103.56 | 1.43713 | 1499.9
298.15 K, x2 = 0.7966 | 1133.07 | 1.43209 | 1517.6
298.15 K, x2 = 0.8978 | 1164.87 | 1.42695 | 1539.8
303.15 K, x2 = 0 | 914.8 | 1.46152 | 1432.6
303.15 K, x2 = 0.1084 | 941.91 | 1.45882 | 1438.3
303.15 K, x2 = 0.196 | 961.89 | 1.45622 | 1441.3
303.15 K, x2 = 0.3023 | 987.89 | 1.45226 | 1445.3
303.15 K, x2 = 0.4087 | 1016.54 | 1.4482 | 1452.1
303.15 K, x2 = 0.5064 | 1041.86 | 1.44392 | 1459.2
303.15 K, x2 = 0.6027 | 1070.71 | 1.43996 | 1471.7
303.15 K, x2 = 0.6981 | 1099.98 | 1.43564 | 1486
303.15 K, x2 = 0.7966 | 1129.48 | 1.4307 | 1504.5
303.15 K, x2 = 0.8978 | 1161.29 | 1.42526 | 1527.3
308.15 K, x2 = 0 | 911.14 | 1.45955 | 1415.3
308.15 K, x2 = 0.1084 | 938.28 | 1.45675 | 1421.6
308.15 K, x2 = 0.196 | 958.26 | 1.45433 | 1424.9
308.15 K, x2 = 0.3023 | 984.27 | 1.45051 | 1429.4
308.15 K, x2 = 0.4087 | 1012.96 | 1.44653 | 1436.8
308.15 K, x2 = 0.5064 | 1038.25 | 1.4423 | 1444.4
308.15 K, x2 = 0.6027 | 1067.16 | 1.43842 | 1457.4
308.15 K, x2 = 0.6981 | 1096.42 | 1.43416 | 1472.3
308.15 K, x2 = 0.7966 | 1125.91 | 1.42923 | 1491.4
308.15 K, x2 = 0.8978 | 1157.71 | 1.42379 | 1514.9
313.15 K, x2 = 0 | 907.49 | 1.45761 | 1398
313.15 K, x2 = 0.1084 | 934.64 | 1.45482 | 1405
313.15 K, x2 = 0.196 | 954.63 | 1.45243 | 1408.7
313.15 K, x2 = 0.3023 | 980.66 | 1.44871 | 1413.7
313.15 K, x2 = 0.4087 | 1009.39 | 1.44484 | 1421.6
313.15 K, x2 = 0.5064 | 1034.65 | 1.44059 | 1429.7
313.15 K, x2 = 0.6027 | 1063.63 | 1.43681 | 1443.3
313.15 K, x2 = 0.6981 | 1092.9 | 1.43266 | 1458.8
313.15 K, x2 = 0.7966 | 1122.36 | 1.42777 | 1478.6
313.15 K, x2 = 0.8978 | 1154.16 | 1.4223 | 1502.7
318.15 K, x2 = 0 | 903.83 | 1.45564 | 1380.9
318.15 K, x2 = 0.1084 | 931.01 | 1.45292 | 1388.6
318.15 K, x2 = 0.196 | 951.01 | 1.45054 | 1392.7
318.15 K, x2 = 0.3023 | 977.05 | 1.44692 | 1398.2
318.15 K, x2 = 0.4087 | 1005.86 | 1.44312 | 1406.6
318.15 K, x2 = 0.5064 | 1031.07 | 1.43894 | 1415.2
318.15 K, x2 = 0.6027 | 1060.13 | 1.43513 | 1429.4
318.15 K, x2 = 0.6981 | 1089.38 | 1.43111 | 1445.5
318.15 K, x2 = 0.7966 | 1118.83 | 1.4263 | 1465.9
318.15 K, x2 = 0.8978 | 1150.62 | 1.4208 | 1490.6
323.15 K, x2 = 0 | 900.17 | 1.45367 | 1364
323.15 K, x2 = 0.1084 | 927.39 | 1.45088 | 1372.3
323.15 K, x2 = 0.196 | 947.4 | 1.44862 | 1376.7
323.15 K, x2 = 0.3023 | 973.44 | 1.44512 | 1382.7
323.15 K, x2 = 0.4087 | 1002.29 | 1.44146 | 1391.8
323.15 K, x2 = 0.5064 | 1027.48 | 1.43731 | 1400.8
323.15 K, x2 = 0.6027 | 1056.67 | 1.43346 | 1415.6
323.15 K, x2 = 0.6981 | 1085.86 | 1.42954 | 1432.2
323.15 K, x2 = 0.7966 | 1115.32 | 1.42478 | 1453.3
323.15 K, x2 = 0.8978 | 1147.1 | 1.41935 | 1478.6
